According to ChEMBL document CHEMBL1177698, “Inhibition of protein kinase C-driven nuclear factor-kappaB activation: synthesis, structure-activity relationship, and pharmacological profiling of pathway specific benzimidazole probe molecules” (J Med Chem, 2010):
≈ marks a conversion by molar mass, not a printed value. Blank lines part the entries; values can stand above or below the compound they belong to. Calls of active or inactive are those of the source. No cut-off for these calls is given here.

Legend:
[1] = Inhibition of NF-kappaB activation transfected in PMA-stimulated HEK293 cells after 16 hrs by luciferase reporter gene assay; type: cell-based; details: HEK293, 16 h
[2] = Permeability at 50 uM at pH 5 by PAMPA; type: ADME; details: pH 5, 50 µM
[3] = molecular target: Protein kinase C theta type (Homo sapiens) (UniProt Q04759); assay: Inhibition of PKCtheta up to 8 uM
[4] = Metabolic stability in human liver microsomes assessed as compound remaining at 1 uM after 1 hr by LC/MS/MS analysis; type: ADME, Microsome; details: read-out: Stability
[5] = Cytotoxicity against human Fa2N-4 cells after 24 hrs by ATP-lite 1-step assay; type: cell-based; details: read-out: LD50
[6] = molecular target: T1, Serine/threonine-protein kinase tousled-like 1 (Homo sapiens) (UniProt Q9UKI8); assay: Inhibition of TLK1 at 10 uM
T1 sequence (whole entry): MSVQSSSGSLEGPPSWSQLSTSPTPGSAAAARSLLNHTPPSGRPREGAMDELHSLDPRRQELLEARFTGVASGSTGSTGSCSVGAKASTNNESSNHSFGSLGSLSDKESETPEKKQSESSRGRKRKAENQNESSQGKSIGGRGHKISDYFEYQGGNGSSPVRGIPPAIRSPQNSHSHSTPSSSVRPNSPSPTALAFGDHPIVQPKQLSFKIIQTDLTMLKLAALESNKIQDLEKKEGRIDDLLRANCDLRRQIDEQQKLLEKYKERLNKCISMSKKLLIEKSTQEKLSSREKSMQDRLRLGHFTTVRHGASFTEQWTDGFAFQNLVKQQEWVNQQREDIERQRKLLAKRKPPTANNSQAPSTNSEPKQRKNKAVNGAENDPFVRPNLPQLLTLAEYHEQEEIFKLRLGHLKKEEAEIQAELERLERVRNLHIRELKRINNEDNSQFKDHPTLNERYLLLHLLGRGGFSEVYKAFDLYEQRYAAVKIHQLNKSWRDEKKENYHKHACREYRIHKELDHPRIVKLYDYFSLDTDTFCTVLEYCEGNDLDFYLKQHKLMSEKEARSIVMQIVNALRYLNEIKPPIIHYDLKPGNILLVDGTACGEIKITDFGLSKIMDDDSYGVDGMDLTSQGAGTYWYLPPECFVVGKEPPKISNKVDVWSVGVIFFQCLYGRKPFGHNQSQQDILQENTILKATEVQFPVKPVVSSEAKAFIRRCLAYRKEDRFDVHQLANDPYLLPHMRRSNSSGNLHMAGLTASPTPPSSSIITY

[7] = Metabolic stability in mouse liver microsomes assessed as compound remaining at 10 uM after 1 hr by LC/MS/MS analysis; type: ADME, Microsome; details: read-out: Stability
[8] = Permeability at 50 uM at pH 7.4 by PAMPA; type: ADME; details: pH 7.4, 50 µM
HEK293 = assay: Inhibition of NF-kappaB activation transfected in TNF-alpha-stimulated HEK293 cells after 16 hrs by luciferase reporter gene assay; type: cell-based
[9] = Drug level in mouse blood at 50 mg/kg, ip after 3 hrs by LC/MS analysis; type: ADME, organism-based; set-up: dose 50 mg/kg, route intraperitoneal; details: whole blood, read-out: Drug uptake
[10] = Metabolic stability in human liver microsomes assessed as compound remaining at 10 uM after 1 hr by LC/MS/MS analysis; type: ADME, Microsome; details: read-out: Stability
[11] = Metabolic stability in mouse liver microsomes assessed as compound remaining at 1 uM after 1 hr by LC/MS/MS analysis; type: ADME, Microsome; details: read-out: Stability
[12] = Cytotoxicity against human HEK293 cells after 24 hrs by ATP-lite 1-step assay; type: cell-based; details: read-out: LD50
[13] = Drug level in mouse blood at 10 mg/kg, ip after 0.5 hrs by LC/MS analysis; type: ADME, organism-based; set-up: dose 10 mg/kg, route intraperitoneal; details: whole blood, read-out: Drug uptake
[14] = Permeability at 50 uM at pH 6.2 by PAMPA; type: ADME; details: pH 6.2, 50 µM
[15] = molecular target: T2, Inhibitor of nuclear factor kappa-B kinase subunit beta (Homo sapiens) (UniProt O14920); assay: Inhibition of IKK-beta up to 8 uM
T2 sequence (whole entry): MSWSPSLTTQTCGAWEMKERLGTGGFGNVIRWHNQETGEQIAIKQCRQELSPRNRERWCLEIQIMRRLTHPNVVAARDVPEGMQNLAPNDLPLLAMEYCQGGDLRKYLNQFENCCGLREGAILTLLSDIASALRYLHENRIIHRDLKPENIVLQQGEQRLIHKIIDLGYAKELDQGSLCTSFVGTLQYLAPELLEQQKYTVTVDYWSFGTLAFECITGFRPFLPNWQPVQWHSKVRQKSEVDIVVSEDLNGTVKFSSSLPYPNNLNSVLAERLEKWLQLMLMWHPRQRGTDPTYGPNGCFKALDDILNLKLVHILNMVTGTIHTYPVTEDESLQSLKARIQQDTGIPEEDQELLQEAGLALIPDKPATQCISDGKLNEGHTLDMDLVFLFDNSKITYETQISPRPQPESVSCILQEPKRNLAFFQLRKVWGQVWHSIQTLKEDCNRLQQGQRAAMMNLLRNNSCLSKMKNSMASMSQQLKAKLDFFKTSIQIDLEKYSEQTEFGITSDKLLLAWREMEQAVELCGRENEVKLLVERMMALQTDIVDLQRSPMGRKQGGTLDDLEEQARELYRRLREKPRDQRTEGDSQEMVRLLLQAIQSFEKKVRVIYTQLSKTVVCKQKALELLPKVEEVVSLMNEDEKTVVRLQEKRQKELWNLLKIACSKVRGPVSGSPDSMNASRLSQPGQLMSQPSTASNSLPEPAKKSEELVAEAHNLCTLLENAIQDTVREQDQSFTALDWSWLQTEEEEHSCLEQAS

[16] = Aqueous solubility at pH 5 after 18 hrs by UV kinetic solubility method; type: physicochemical; details: aqueous medium
[17] = Drug level in mouse blood at 30 mg/kg, ip after 0.5 hrs by LC/MS analysis; type: ADME, organism-based; set-up: dose 30 mg/kg, route intraperitoneal; details: whole blood, read-out: Drug uptake
[18] = molecular target: Protein kinase C beta type (Homo sapiens) (UniProt P05771); assay: Inhibition of PKCbeta up to 8 uM
[19] = Aqueous solubility at pH 7.4 after 18 hrs by UV kinetic solubility method; type: physicochemical; details: aqueous medium
[20] = molecular target: Tyrosine-protein kinase JAK2 (Homo sapiens) (UniProt O60674); assay: Inhibition of JAK2 at 10 uM
[21] = Drug level in mouse blood at 50 mg/kg, ip after 0.5 hrs by LC/MS analysis; type: ADME, organism-based; set-up: dose 50 mg/kg, route intraperitoneal; details: whole blood, read-out: Drug uptake
[22] = molecular target: RAF proto-oncogene serine/threonine-protein kinase (Homo sapiens) (UniProt P04049); assay: Inhibition of raf kinase at 10 uM
[23] = Drug level in mouse blood at 30 mg/kg, ip after 3 hrs by LC/MS analysis; type: ADME, organism-based; set-up: dose 30 mg/kg, route intraperitoneal; details: whole blood, read-out: Drug uptake
[24] = Drug level in mouse blood at 10 mg/kg, ip after 3 hrs by LC/MS analysis; type: ADME, organism-based; set-up: dose 10 mg/kg, route intraperitoneal; details: whole blood, read-out: Drug uptake
[25] = Aqueous solubility at pH 6.2 after 18 hrs by UV kinetic solubility method; type: physicochemical; details: aqueous medium

Protein kinase C beta type (Homo sapiens), sequence (P05771 2-671 limits assumed): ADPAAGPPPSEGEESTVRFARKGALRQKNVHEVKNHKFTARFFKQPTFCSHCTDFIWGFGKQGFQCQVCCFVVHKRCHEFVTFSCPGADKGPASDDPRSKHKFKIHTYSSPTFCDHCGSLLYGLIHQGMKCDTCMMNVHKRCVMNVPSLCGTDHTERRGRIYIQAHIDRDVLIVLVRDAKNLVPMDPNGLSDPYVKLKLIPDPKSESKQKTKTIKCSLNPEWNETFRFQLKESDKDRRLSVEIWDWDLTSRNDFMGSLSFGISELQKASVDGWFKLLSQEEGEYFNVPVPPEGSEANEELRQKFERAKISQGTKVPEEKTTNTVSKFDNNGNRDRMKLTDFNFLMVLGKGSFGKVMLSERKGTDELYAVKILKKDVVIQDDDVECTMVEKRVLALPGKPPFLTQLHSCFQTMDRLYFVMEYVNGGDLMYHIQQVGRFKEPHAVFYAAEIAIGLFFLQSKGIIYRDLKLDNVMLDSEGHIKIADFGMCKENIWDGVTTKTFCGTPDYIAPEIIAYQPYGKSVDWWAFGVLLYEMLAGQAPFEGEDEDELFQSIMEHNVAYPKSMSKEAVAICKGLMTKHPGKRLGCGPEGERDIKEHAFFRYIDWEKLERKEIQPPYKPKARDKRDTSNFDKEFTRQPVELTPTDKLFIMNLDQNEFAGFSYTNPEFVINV
Tyrosine-protein kinase JAK2 (Homo sapiens), sequence (O60674 whole entry): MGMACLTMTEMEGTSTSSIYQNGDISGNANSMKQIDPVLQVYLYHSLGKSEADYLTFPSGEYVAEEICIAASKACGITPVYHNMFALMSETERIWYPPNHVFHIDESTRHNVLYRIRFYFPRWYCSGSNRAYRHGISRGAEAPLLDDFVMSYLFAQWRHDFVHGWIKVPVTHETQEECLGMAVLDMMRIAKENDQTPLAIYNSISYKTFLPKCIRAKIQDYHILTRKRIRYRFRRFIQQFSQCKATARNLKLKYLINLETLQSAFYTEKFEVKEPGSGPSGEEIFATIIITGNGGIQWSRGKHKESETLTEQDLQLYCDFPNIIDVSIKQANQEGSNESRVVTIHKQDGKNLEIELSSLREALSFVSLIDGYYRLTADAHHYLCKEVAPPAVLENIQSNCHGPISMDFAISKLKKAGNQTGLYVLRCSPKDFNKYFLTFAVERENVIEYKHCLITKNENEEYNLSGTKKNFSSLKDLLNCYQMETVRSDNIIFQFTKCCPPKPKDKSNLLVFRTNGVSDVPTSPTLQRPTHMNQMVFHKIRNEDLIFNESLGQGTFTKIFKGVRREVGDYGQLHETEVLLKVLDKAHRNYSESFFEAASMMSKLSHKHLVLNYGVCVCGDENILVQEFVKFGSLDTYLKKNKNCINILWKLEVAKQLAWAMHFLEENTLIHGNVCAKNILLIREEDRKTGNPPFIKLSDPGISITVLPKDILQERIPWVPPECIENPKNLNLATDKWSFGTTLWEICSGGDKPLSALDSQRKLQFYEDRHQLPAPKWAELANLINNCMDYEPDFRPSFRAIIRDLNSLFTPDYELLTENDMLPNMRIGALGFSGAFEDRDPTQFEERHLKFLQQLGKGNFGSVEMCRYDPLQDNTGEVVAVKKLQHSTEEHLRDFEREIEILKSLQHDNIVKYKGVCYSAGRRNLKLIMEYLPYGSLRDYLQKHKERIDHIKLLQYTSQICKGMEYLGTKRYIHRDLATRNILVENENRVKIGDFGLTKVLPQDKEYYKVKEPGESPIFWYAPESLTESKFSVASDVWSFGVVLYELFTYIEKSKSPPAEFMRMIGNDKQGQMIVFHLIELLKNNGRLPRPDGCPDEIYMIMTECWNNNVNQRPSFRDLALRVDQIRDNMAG
RAF proto-oncogene serine/threonine-protein kinase (Homo sapiens), sequence (P04049 whole entry): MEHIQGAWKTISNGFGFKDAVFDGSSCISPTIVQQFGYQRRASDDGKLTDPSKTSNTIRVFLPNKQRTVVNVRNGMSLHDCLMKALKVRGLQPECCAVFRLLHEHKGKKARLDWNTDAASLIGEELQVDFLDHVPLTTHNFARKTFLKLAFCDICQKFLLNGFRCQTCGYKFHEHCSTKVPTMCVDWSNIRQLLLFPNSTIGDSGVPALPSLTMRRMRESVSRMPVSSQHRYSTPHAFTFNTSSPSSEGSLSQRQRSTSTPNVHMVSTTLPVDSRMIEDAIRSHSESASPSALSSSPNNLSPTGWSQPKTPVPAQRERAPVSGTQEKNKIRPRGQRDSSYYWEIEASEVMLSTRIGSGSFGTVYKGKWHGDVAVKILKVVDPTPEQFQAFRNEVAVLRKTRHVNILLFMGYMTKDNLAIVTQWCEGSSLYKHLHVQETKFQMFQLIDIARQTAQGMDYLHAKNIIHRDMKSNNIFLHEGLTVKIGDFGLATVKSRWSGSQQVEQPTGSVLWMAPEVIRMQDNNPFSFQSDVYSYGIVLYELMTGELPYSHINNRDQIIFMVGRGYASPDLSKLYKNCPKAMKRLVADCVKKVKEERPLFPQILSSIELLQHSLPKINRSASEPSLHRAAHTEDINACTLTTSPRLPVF
Protein kinase C theta type (Homo sapiens), sequence (Q04759 whole entry, looked up): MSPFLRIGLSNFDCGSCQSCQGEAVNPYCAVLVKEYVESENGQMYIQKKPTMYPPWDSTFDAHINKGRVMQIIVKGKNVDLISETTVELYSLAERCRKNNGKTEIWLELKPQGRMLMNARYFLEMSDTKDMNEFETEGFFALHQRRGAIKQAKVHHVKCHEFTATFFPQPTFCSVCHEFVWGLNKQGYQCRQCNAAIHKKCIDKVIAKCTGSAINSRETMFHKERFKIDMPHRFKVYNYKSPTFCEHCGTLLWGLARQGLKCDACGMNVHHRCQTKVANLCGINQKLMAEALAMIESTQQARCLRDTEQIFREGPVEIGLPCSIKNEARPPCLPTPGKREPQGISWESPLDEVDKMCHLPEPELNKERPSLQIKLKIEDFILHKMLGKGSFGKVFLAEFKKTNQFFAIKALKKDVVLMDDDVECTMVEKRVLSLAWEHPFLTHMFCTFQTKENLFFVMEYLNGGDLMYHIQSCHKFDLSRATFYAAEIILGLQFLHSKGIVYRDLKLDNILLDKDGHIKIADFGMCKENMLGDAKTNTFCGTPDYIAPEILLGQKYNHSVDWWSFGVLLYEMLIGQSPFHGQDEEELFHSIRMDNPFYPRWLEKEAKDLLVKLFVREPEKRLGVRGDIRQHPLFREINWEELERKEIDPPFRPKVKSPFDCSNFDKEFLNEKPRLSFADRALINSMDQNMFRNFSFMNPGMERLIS

SMILES: Cc1cc2nc(NCCCO)n(CC(=O)c3cc(C(C)(C)C)c(O)c(C(C)(C)C)c3)c2cc1C
permeability [2]: 299 ×10⁻⁶ cm/s | inhibition [3]: inactive | remaining at 1 h, 1 µM [4]: 26% | CC50 at 24 h [5]: 47000 nM | inhibition [6]: 70% | remaining at 1 h, 10 µM [7]: 19% | permeability [8]: 441 ×10⁻⁶ cm/s | inhibition (HEK293): inactive | concentration at 3 h [9]: 6.96 µM | remaining at 1 h, 10 µM [10]: 55% | remaining at 1 h, 1 µM [11]: 0.5% | CC50 at 24 h [12]: 40000 nM | concentration at 0.5 h [13]: 1.81 µM | permeability [14]: 710 ×10⁻⁶ cm/s | inhibition [15]: inactive | solubility kinetic at 18 h [16]: 42 µg/mL (≈ 90.2 µM) | concentration at 0.5 h [17]: 8.28 µM | inhibition [18]: inactive | solubility kinetic at 18 h [19]: 0.7 µg/mL (≈ 1.5 µM) | inhibition [20]: 53% | concentration at 0.5 h [21]: 5.93 µM | inhibition [22]: 57% | concentration at 3 h [23]: 3.64 µM | concentration at 3 h [24]: 0.5 µM | solubility kinetic at 18 h [25]: 0.5 µg/mL (≈ 1.07 µM)

SMILES: CCCCNc1nc2cc(C)c(C)cc2n1CC(=O)c1cc(C(C)(C)C)c(O)c(C(C)(C)C)c1
IC50 [1]: 800 nM

SMILES: CC(C)(C)c1cc(C(=O)Cn2c(NCCCO)nc3cc(Br)ccc32)cc(C(C)(C)C)c1O
IC50 [1]: 3000 nM

SMILES: CC(C)(C)c1cc(C(=O)Cn2c(NCCCO)nc3ccc(N)cc32)cc(C(C)(C)C)c1O
IC50 [1]: 400 nM

SMILES: Cc1cc2nc(NCCCO)n(CC(=O)c3cccc(C(C)(C)C)c3)c2cc1C
IC50 [1]: 11000 nM

SMILES: CC(C)(C)c1cc(C(=O)Cn2c(NCCCO)nc3cc(N)ccc32)cc(C(C)(C)C)c1O
IC50 [1]: 800 nM

SMILES: Cc1cc2nc(NC3CCC(O)CC3)n(CC(=O)c3cc(C(C)(C)C)c(O)c(C(C)(C)C)c3)c2cc1C (configuration not stated)
IC50 [1]: 100 nM

SMILES: CC(C)(C)c1cc(C(=O)Cn2c(NCCCO)nc3cc(-c4ccccc4)ccc32)cc(C(C)(C)C)c1O
IC50 [1]: 600 nM

SMILES: COCCCNc1nc2cc(C)c(C)cc2n1CC(=O)c1cc(C(C)(C)C)c(O)c(C(C)(C)C)c1
IC50 [1]: 300 nM

SMILES: Cc1cc2nc(NCCCO)n(CC(=O)c3cccc(OC(C)(C)C)c3)c2cc1C
IC50 [1]: 16000 nM

SMILES: CC(C)(C)c1cc(C(=O)Cn2c(NCCCO)nc3ccc(-c4ccccc4)cc32)cc(C(C)(C)C)c1O
IC50 [1]: 900 nM

The remaining lines, values ahead:

IC50 [1]: 13000 nM
SMILES: Cc1cc2nc(N3CCC(O)CC3)n(CC(=O)c3cc(C(C)(C)C)c(O)c(C(C)(C)C)c3)c2cc1C

IC50 [1]: 100 nM
SMILES: Cc1cc2nc(NCCCO)n(CC(=O)c3cc(C(C)(C)C)cc(C(C)(C)C)c3)c2cc1C

IC50 [1]: > 8000 nM
SMILES: CC(C)(C)c1cc(C(=O)Cn2c(NCCCO)nc3ccc([N+](=O)[O-])cc32)cc(C(C)(C)C)c1O

IC50 [1]: 6000 nM
SMILES: CC(C)(C)c1cc(C(=O)Cn2c(NCCCO)nc3ccc(Br)cc32)cc(C(C)(C)C)c1O

IC50 [1]: 300 nM
SMILES: CNc1nc2cc(C)c(C)cc2n1CC(=O)c1cc(C(C)(C)C)c(O)c(C(C)(C)C)c1

IC50 [1]: 2000 nM
SMILES: CC(C)(C)c1cc(C(=O)Cn2c(NCCCO)nc3cc([N+](=O)[O-])ccc32)cc(C(C)(C)C)c1O

IC50 [1]: 1800 nM
SMILES: CC(C)(C)c1cc(C(=O)Cn2c(NCCCO)nc3cc(C(=O)c4ccccc4)ccc32)cc(C(C)(C)C)c1O
